According to US20090143279A1 (priority 2007, published 2009):
Like-named read-outs stand apart in the source and are kept apart here.

Tests used:
[1] = system: nuOXPHOS transcripts; assay type: cell-based, mouse; details: for nucOX (composite Z-score): normalized score vs mock-treated (DMSO) wells
[2] = system: OXPHOS gene expression; assay type: cell-based, mouse; details: for GE-HTS (composite Z-score): normalized score vs mock-treated (DMSO) wells
[3] = system: mitochondrial membrane potential; assay type: cell-based, mouse; details: for ΔΨm (composite Z-score): normalized score vs mock-treated (DMSO) wells
[4] = system: mtOXPHOS transcripts; assay type: cell-based, mouse; details: for mitoOX (composite Z-score): normalized score vs mock-treated (DMSO) wells
[5] = system: cellular dehydrogenase activity; details: for MTT (composite Z-score): normalized score vs mock-treated (DMSO) wells
[6] = system: reactive oxygen species; assay type: cell-based, mouse; details: for ROS (composite Z-score): normalized score vs mock-treated (DMSO) wells
[7] = system: cytochrome c; assay type: cell-based, mouse; details: for cyt c (composite Z-score): normalized score vs mock-treated (DMSO) wells
[8] = system: C2C12 myotubes; details: for Viability (composite Z-score): normalized score vs mock-treated (DMSO) wells
[9] = composite Z-score vs DMSO wells, Conc 20 μM
[10] = composite Z-score vs DMSO, Conc 20 μM
[11] = composite Z-score vs mock-treated (DMSO) wells, Conc 20 μM
[12] = normalized composite Z-score vs mock-treated (DMSO) wells, Conc 20 μM
[13] = 20 μM, composite Z-score vs DMSO

Compound: C[C@@H]1CC[C@H]2[C@@H](C)C(=O)O[C@@H]3O[C@@]4(C)CC[C@@H]1[C@]32OO4 [artemisinin]
- nucOX [1, 9]: 0.537
- GE-HTS [2, 9]: 0.704
- ΔΨm [3, 9]: −0.832
- mitoOX [4, 9]: 0.903
- MTT [5, 9]: 0.616
- ROS [6, 9]: 0.123
- cyt c [7]: 0.522
- cyt c [7, 9]: 1.104
- Viability [8, 9]: 0.336

Compound: COc1ccc(-c2c(O)c3c(OC)c4c(cc3oc2=O)OC(C)(C)C=C4)cc1 [robustic acid, reference compound]
- nucOX (composite Z-score) ([1]; Conc 20 μM): −0.973
- GE-HTS (composite Z-score) ([2]; Conc 20 μM): −0.930
- ΔΨm (composite Z-score) ([3]; Conc 20 μM): −1.086
- mitoOX (composite Z-score) ([4]; Conc 20 μM): −0.587
- MTT (composite Z-score) ([5]; Conc 20 μM): −1.831
- ROS (composite Z-score) ([6]; Conc 20 μM): −0.119
- cyt c (composite Z-score) ([7]; Conc 20 μM): −0.459
- Viability (composite Z-score) ([8]; Conc 20 μM): −1.213

Compound: NNC(=O)c1ccncc1.Nc1ccc(C(=O)O)c(O)c1 [pasiniazid]
- nucOX [1, 10]: −0.022
- GE-HTS [2, 10]: −0.059
- ΔΨm [3, 10]: −0.809
- mitoOX [4, 10]: −0.164
- MTT [5, 10]: −0.807
- ROS [6, 10]: 0.502
- cyt c [7, 10]: 0.590
- Viability [8, 10]: −0.883

Compound: COc1ccc(-c2coc3c(OC)c(OC)cc(OC)c3c2=O)cc1 [isotectorigenin trimethyl ether]
- nucOX [1, 11]: 0.426
- GE-HTS [2, 11]: 0.437
- ΔΨm [3, 11]: 0.413
- mitoOX [4, 11]: 0.418
- MTT [5, 11]: −1.465
- ROS [6, 11]: 0.359
- cyt c [7, 11]: 0.640
- Viability [8, 11]: 0.976

Compound: COc1cc(-c2coc3cc(O[C@@H]4O[C@H](CO)[C@@H](O)[C@H](O)[C@H]4O)c(OC)c(O)c3c2=O)cc(O)c1OC [iridin]
- nucOX [1, 11]: −0.602
- GE-HTS [2, 11]: −0.755
- ΔΨm [3, 11]: 0.076
- mitoOX [4, 11]: −0.990
- MTT [5, 11]: −1.958
- ROS [6, 11]: 0.927
- cyt c [7, 11]: −0.474
- Viability [8, 11]: −0.441

Compound: C[C@H](CCC(=O)O)[C@H]1CC[C@H]2[C@@H]3CC[C@H]4C[C@H](O)CC[C@]4(C)[C@H]3C[C@H](O)[C@]12C [allodeoxycholic acid]
- nucOX [1, 10]: −0.903
- GE-HTS [2, 10]: −0.905
- ΔΨm [3, 10]: 0.404
- mitoOX [4, 10]: −0.773
- MTT [5, 10]: −2.126
- ROS [6, 10]: −0.164
- cyt c [7, 10]: −2.903
- Viability [8, 10]: −1.161

Compound: O=C(O)c1cc(O)c2c(c1)[C@H]([C@H]1c3cc(C(=O)O)cc(O)c3C(=O)c3c(O[C@@H]4O[C@H](CO)[C@@H](O)[C@H](O)[C@H]4O)cccc31)c1cccc(O[C@@H]3O[C@H](CO)[C@@H](O)[C@H](O)[C@H]3O)c1C2=O [sennoside A]
- nucOX [1, 10]: −1.093
- GE-HTS [2, 10]: −1.374
- ΔΨm [3, 10]: −0.640
- mitoOX [4, 10]: −1.628
- MTT [5, 10]: −0.769
- ROS [6, 10]: 0.137
- cyt c [7, 10]: 0.362
- Viability [8, 10]: 0.602

Compound: CS(=O)(=O)CCCCN=C=S [erysolin]
- nucOX (composite Z-score) ([1]; Conc 20 μM): −0.850
- GE-HTS (composite Z-score) ([2]; Conc 20 μM): −0.913
- ΔΨm (composite Z-score) ([3]; Conc 20 μM): −0.785
- mitoOX (composite Z-score) ([4]; Conc 20 μM): −0.862
- MTT (composite Z-score) ([5]; Conc 20 μM): −3.551
- ROS (composite Z-score) ([6]; Conc 20 μM): −2.871
- cyt c (composite Z-score) ([7]; Conc 20 μM): −1.868
- Viability (composite Z-score) ([8]; Conc 20 μM): −4.103

Compound: COc1c(CC(=O)c2cc3c(cc2O)OC(C)(C)C(O)C3)ccc2c1C=CC(C)(C)O2 (stereo not shown) [dihydromunduletone]
- nucOX [1, 12]: −1.276
- GE-HTS [2, 12]: −1.331
- ΔΨm [3, 12]: 2.250
- mitoOX [4, 12]: −1.248
- MTT [5, 12]: −0.805
- ROS [6, 12]: −0.049
- cyt c [7, 12]: −0.146
- Viability [8, 12]: 1.580

Compound: CO[C@H]1[C@H](O)[C@H](O[C@H]2CC[C@@]3(C=O)[C@H](CC[C@@H]4[C@@H]3CC[C@]3(C)[C@@H](C5=CC(=O)OC5)CC[C@]43O)C2)O[C@@H](C)[C@@H]1O [peruvoside]
- nucOX [1, 9]: 0.297
- GE-HTS [2, 9]: 0.328
- ΔΨm [3, 9]: −0.906
- mitoOX [4, 9]: 0.324
- MTT [5, 9]: −1.190
- ROS [6, 9]: 0.997
- cyt c [7, 9]: 0.075
- Viability [8, 9]: 0.426

Compound: Nc1ccc(C(=O)[O-])cc1.[K+] [potassium p-aminobenzoate]
- nucOX [1, 13]: −1.085
- GE-HTS [2, 13]: −1.001
- ΔΨm [3, 13]: −0.826
- mitoOX [4, 13]: −0.673
- MTT [5, 13]: −1.445
- ROS [6, 13]: 0.818
- cyt c [7, 13]: 0.519
- Viability [8, 13]: −0.277

Compound: CC1(C)CC2C1CC[C@]1(CBr)CCC3C(CC(=O)O)C(=O)O[C@@]32C1 (stereo partly shown)
- nucOX [1, 12]: −0.612
- GE-HTS [2, 12]: −1.029
- ΔΨm [3, 12]: −0.084
- mitoOX [4, 12]: −1.624
- MTT [5, 12]: −0.892
- ROS [6, 12]: 0.604
- cyt c [7, 12]: 0.551
- Viability [8, 12]: −0.498
